# Measurements from publication PMC12096669, “Structural isomerisation affects the antitubercular activity of adamantyl-isoxyl adducts” (Journal of Enzyme Inhibition and Medicinal Chemistry, 2025).
# Read-outs that look alike come from different tables or passages of the source.
# Key:
# [1] = test system: E. cloacae NCTC 10005; assay: Non-mycobacterial REMA assay; format: cell-based; settings: Enterobacter cloacae, NCTC10005, read-out: Minimum inhibitory concentration 95%
# [2] = test system: S. aureus NCTC 2981; assay: Non-mycobacterial REMA assay; format: cell-based; settings: Staphylococcus aureus, NCTC2981, read-out: Minimum inhibitory concentration 95%
# [3] = test system: E. faecalis NCTC 775; assay: Non-mycobacterial REMA assay; format: cell-based; settings: Enterococcus faecalis, NCTC775, read-out: Minimum inhibitory concentration 95%
# [4] = test system: AC10 hybrid adult ventricular cardiomyocytes; assay: MTS cytotoxicity assay, cardiomyocytes; format: cell-based; settings: Homo sapiens, AC10 cardiac, 96 h, read-out: MTS percentage survival @ 100 µM
# [5] = test system: K. pneumoniae NCTC 9633; assay: Non-mycobacterial REMA assay; format: cell-based; settings: Klebsiella pneumoniae, NCTC9633, read-out: Minimum inhibitory concentration 95%
# [6] = test system: tuberculosis patients; parameters: method as in PMID 5535617; settings: monotherapy; after an 8-week regimen; cited from earlier work
# [7] = test system: B. cereus NCTC 7464; assay: Non-mycobacterial REMA assay; format: cell-based; settings: Bacillus cereus, NCTC7464, read-out: Minimum inhibitory concentration 95%
# [8] = test system: Mtb mc^27902 pMV261; assay: microbe, parasite or virus in culture; format: cell-based; settings: Mycobacterium tuberculosis
# [9] = test system: S. pyogenes NCTC 8198; assay: Non-mycobacterial REMA assay; format: cell-based; settings: Streptococcus pyogenes, NCTC8198, read-out: Minimum inhibitory concentration 95%
# [10] = test system: HepG2 human liver cancer cell line; assay: MTS cytotoxicity assay, liver cells; format: cell-based; settings: 96 h, read-out: MTS percentage survival @ 100 µM
# [11] = test system: RAW264.7 murine macrophage cells; assay: cells; format: cell-based
# [12] = test system: A. baumannii NCTC 12156; assay: Non-mycobacterial REMA assay; format: cell-based; settings: Acinetobacter baumannii, NCTC12156, read-out: Minimum inhibitory concentration 95%
# [13] = test system: Mtb mc^27902 pMV261; assay: EtBr accumulation assay; format: cell-based, Mycobacterium tuberculosis; settings: compound at ½ the MIC; absence or presence of glucose; 60 min
# [14] = test system: M. bovis BCG; settings: microplate alamar blue assay; cited from earlier work
# [15] = test system: E. faecium NCTC 7171; assay: Non-mycobacterial REMA assay; format: cell-based; settings: Enterococcus faecium, NCTC7171, read-out: Minimum inhibitory concentration 95%
# [16] = test system: Mtb mc^27902 pMV261; format: cell-based, Mycobacterium tuberculosis
# [17] = test system: M. bovis BCG containing the pVVdesA3 overexpression plasmid; parameters: method as in PMID 14559907; settings: M. bovis BCG with pVVdesA3 overexpression plasmid; microplate alamar blue assay; cited from earlier work
# [18] = test system: P. aeruginosa DSM 19880; assay: Non-mycobacterial REMA assay; format: cell-based; settings: Pseudomonas aeruginosa, DSM19880, read-out: Minimum inhibitory concentration 95%
# [19] = test system: S. enterica NCTC 6754; assay: Non-mycobacterial REMA assay; format: cell-based; settings: Salmonella enterica, NCTC6754, read-out: Minimum inhibitory concentration 95%
# Description: (§1) Bacterial minimum inhibition concentrations (MIC) were determined using the Resazurin Microtiter Assay (REMA) method according to Palomino et al.[28] Stock solutions of the tested compounds were prepared in sterile dimethyl sulfoxide (DMSO), then diluted in 7H9OPALPen^1Cyc^10(Kan^25) to obtain a final drug concentration range of 32–0.032 μg/mL. A suspension of the test Mycobacterium was cultured in 7H9OPALPen^1Cyc^10(Kan^25) containing 0.05% v/v Tween^80 for one week at 37 °C, 5% CO2. The bacterial suspension was adjusted to 0.5 McFarland and diluted in 7H9OPALPen^1Cyc^10(Kan^25) 1:25. 100 μL of the inoculum was added to each well of a 96-well microplate together with 100 μL of the compound titration. The plate was incubated at 37 °C, 5% CO2. After 5 days, 10.5 μL 0.1% (w/v) sterile resazurin (solubilised in sterile PBS containing 0.02% v/v Tween^80) was added. Reduced resazurin was detected using fluorescence (Ex/Em 530/590 nm) in a FLUOstar Optima, BMG Labtech. All titre measurements were plotted in SigmaPlot™ and 4-parameter logistic (4PL) model regressions conducted. The relative MIC95 of each curve was calculated and averaged (Table 1). Testing was performed in duplicate with two independent biological repeats. […] Though, for these cultures, dilutions were performed at 1:125 prior to inoculation of the plate and incubation for 4 h (Supplementary Table 3). Known antitubercular agents used in this study were rifampicin (RIF), isoniazid (INH), ISO, EMB, ethionamide (ETH), linezolid (LZD), delamanid (DEL) and moxifloxacin (MOX).
# [20] = test system: E. coli K12; assay: Non-mycobacterial REMA assay; format: cell-based; settings: Escherichia coli, read-out: Minimum inhibitory concentration 95%
# Description: as §1
# [21] = test system: S. agalactiae NCTC 8181; assay: Non-mycobacterial REMA assay; format: cell-based; settings: Streptococcus agalactiae, NCTC8181, read-out: Minimum inhibitory concentration 95%
compound,measurement,setting,value
"CC(C)CCOc1ccc(NC(=S)Nc2ccc(OCCC(C)C)cc2)cc1 [ISO, 4,4′-diisoamyloxydiphenylthiourea]",MIC,[1],> 32 µg/mL
same,MIC,[2],> 32 µg/mL
same,MIC,[3],> 32 µg/mL
same,viability at 100 µM,[4],38.9 ± 13.9%
same,MIC,[5],> 32 µg/mL
same,patients testing sputum negative,[6],25%
same,MIC,[7],> 32 µg/mL
same,MIC,"[8]; mc^27902 pMV261, REMA, read-out: Mtb MIC95",0.2 µg/mL
same,MIC,"[8]; values used for the SI, in brackets, […], read-out: MIC95",0.2 µg/mL
same,MIC,"[8]; values used for the SI, […], read-out: MIC95",0.49 µM
same,MIC,[9],> 32 µg/mL
same,viability at 100 µM,[10],95.4 ± 4.3%
same,viability at 100 µM,"[11]; Mus musculus, RAW264.7, 96 h, RAW264.7 macrophage, 100 µM, 96 h, read-out: MTS percentage survival @ 100 µM",34.5%
same,IC50,"[11]; Mus musculus, RAW264.7 macrophages, 0 to 100 µM, read-out: IC50 (cell viability, MTS assay)",18.8 µM
same,selectivity index (SI),[11]; from RAW264.7 IC50 and Mtb MIC95,38
same,MIC,[12],> 32 µg/mL
same,accumulation of EtBr,[13],increased accumulation of EtBr
same,MIC,[14],3.0 µg/mL
same,MIC,[15],> 32 µg/mL
same,TDM and glucose monomycolate levels (TLC),[16],decrease in TDM and glucose monomycolate
same,"effect on mycolic acid biosynthesis (FAMEs/MAMEs, TLC/autoradiography)",[16],mycolate depletion was observed in both the cell wall-bound and whole cell analysis
same,TMM levels (TLC),"[16]; at the highest concentrations, […]",not observed
same,MIC,[17],6.0 µg/mL
same,MIC,[18],> 32 µg/mL
same,MIC,[19],> 32 µg/mL
same,MIC,[20],> 32 µg/mL
same,MIC,[21],> 32 µg/mL
